SMILES strings stand for the structures.

The text below walks through data of paper doi:10.1101/841569v1 (biorxiv, 2019).

For experiment [1], the target named is T1, Mtb-MenD (Mycobacterium tuberculosis, UniProt P9WK11). Nature of the experiment: biochemical.
For experiment [2], the target named is T1, Mtb-MenD.
The target in experiment [3] is T1, Mtb-MenD. The source holds these as a separate data set.

T1 sequence (P9WK11 whole entry): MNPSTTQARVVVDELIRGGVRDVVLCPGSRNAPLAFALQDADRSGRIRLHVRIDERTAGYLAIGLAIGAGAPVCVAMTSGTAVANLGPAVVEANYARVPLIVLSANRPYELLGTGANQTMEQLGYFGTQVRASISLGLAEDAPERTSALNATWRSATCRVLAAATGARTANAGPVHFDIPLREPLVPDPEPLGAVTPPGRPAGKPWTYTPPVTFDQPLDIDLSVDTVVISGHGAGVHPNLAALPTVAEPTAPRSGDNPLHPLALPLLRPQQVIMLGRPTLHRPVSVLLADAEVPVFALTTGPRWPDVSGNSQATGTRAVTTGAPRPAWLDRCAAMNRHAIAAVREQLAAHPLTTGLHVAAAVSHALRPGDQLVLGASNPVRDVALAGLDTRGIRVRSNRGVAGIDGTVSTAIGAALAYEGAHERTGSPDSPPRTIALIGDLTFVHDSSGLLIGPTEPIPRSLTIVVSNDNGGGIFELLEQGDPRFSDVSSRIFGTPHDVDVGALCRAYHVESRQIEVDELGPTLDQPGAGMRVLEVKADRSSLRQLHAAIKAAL

In turn, `O=C(O)c1cc(O)c2ccccc2c1O` [DHNA] had an IC50 on Mtb-MenD [1] of 53 nM. Further, the “% of non-inhibited activity at 20 μM” value on Mtb-MenD [2] is 24 ± 1%.
As for `Cc1ncc(C[n+]2csc(CCOP(=O)(O)OP(=O)(O)O)c2C)c(N)n1` [ThDP], at Mtb-MenD [3], the “X-ray crystal structure (co-crystallised, 1 mM ThDP)” value was “acofactor (ThDP) bound DHNA complex”.

By IC50 is commonly meant the concentration at which inhibition is half-maximal. Read a high IC50 as weaker potency in that assay.
